Series [1] has as its system CPEB1 knockdown TCCSUP cells. Nature of the series: cell death in CPEB1 siRNA knockdown cells. In kind it is cell-based. The text has this:
To analyze whether ASR488 treatment can induce p27 mediated cell death in CPEB1 knockdown bladder cancer cells, we knocked down CPEB1 with SiRNA in TCCSUP cells. (FIG. 11A) ASR488 treatment was unable to restore CPEB1 expression in CPEB1 knockdown cells. Moreover, P27 expression corresponded with CPEB1 expression pattern in the Knockdown cells.

In the next series the target is CPEB1 (Homo sapiens, UniProt Q9BZB8). Nature of the series: scanning fluorimetry with purified CPEB1 protein. In kind it is binding. The text has this:
(FIG. 9B) ASR488 treatment induces p53 independent p27 upregulation in Bladder Cancer cells. (FIG. 9C) The result is GO/G1 cell cycle arrest in ASR488 treated Bladder Cancer Cells. (FIG. 9D) p27 upregulation is due to CPEB1 induction by overexpressing CPEB1 in TCCSUP cells.

Series [2] concerns TCCSUP cells. Description: RNA-seq differential gene expression analysis. It counts as cell-based. The text has this: RNA isolation, cDNA library construction, and DNA sequencing. TCCSUP cells treated with vehicle (DMSO) or ASR488 were subjected to RNA isolation using TRIzol® (Invitrogen; Thermo Fisher Scientific, Inc., Waltham, Mass., USA) according to the manufacturer's protocol. Nano Photometer® spectrophotometer (Implen, Inc., Westlake Village, Calif., USA) was used to measure the RNA concentration and purity of the samples. A cDNA library was then constructed using an NEB Next® Ultra™ RNA Library Prep kit for Illumina® (New England Biolabs, Inc., Ipswich, Mass., USA) by Novogene Bioinformatics Technologies Co. Ltd. (Beijing, China) following the manufacturer's protocols. Subsequently, polymerase chain reaction (PCR) was, Universal PCR primers, and Index (X) Primer for double-stranded cDNA amplification. The PCR products generated for PCR performed using Phusion High Fidelity DNA polymerase were purified using the AMPure XP system, and Agilent Bioanalyzer 2100 system was used to analyze the library quality. The cDNA library was sequenced using an Illumina Hiseq 2000/2500 platform and 100 bp/50 bp single-end reads were generated.
Data Analysis. Bioinformatics analysis was performed using a combination of programs including STAR, HTseq, Cufflink, and our wrapped scripts. Tophat program was used to parse the alignments and DESeq2/edgeR was utilized to ascertain differential expressions. To determine GO and KEGG enrichment Cluster Profiler was used.
For DESeq2 with biological replicates: DESeq2 R package (2_1.6.3) was used to analyze differential expression between the ASR488 treated and control groups (two biological replicates per condition). The p-values obtained from the analysis were adjusted using the Benjamini and Hochberg's approach so that the false discovery rate (FDR) can be controlled. The genes having adjusted p-value <0.05 were assigned as differentially expressed.
For edge R without biological replicates: EdgeR program package (3.16.5) was used to adjust the read counts for each sequenced library before differential gene expression analysis, through one scaling normalized factor. The p-values were adjusted using the Benjamini and Hochberg method. […] The Venn diagrams were prepared using the function Venn diagram in R based on the gene list for different groups.

The next series has as its system normal BCa cells. Description: toxicity to normal cells. It counts as cell-based.
Series [3] relates to TCCSUP cells. Nature of the series: Annexin V-FITC/PI apoptosis flow cytometry. It counts as cell-based. The conditions noted are these: 24 h treatment. As for the experimental part: (§1) Detection of apoptosis by flow cytometry and immunoblotting. Annexin V-fluorescein isothiocyanate (FITC) against propidium iodide (PI) assay (FITC Annexin V Apoptosis Detection Kit I, BD Pharminogen, San Diego, Calif., USA) was used for detecting apoptosis as described previously. Total protein extracts from TCCSUP cells were prepared with the Mammalian Protein Extraction Reagent (Thermo Scientific, Rockford, Ill., USA) according to the manufacturer's instructions. Western blotting was performed using specific antibodies against Cleaved PARP (Cat #5625), BAX (Cat #5023) (Cell signaling Technology), and β-actin (Santa Cruz Biotechnologies, Dallas, Tex., USA). The positive bands were detected using enhanced chemiluminescence.
In general terms: A flow cytometer gives signals particle by particle.

Series [4] concerns HT1376 cells. Nature of the series: Annexin V-FITC/PI apoptosis flow cytometry. In kind it is cell-based. Particulars: HT1376, 24 h treatment. The protocol: as §1
The subject of series [5] is TCCSUP cells. Nature of the series: MTT cell viability assay. It counts as cell-based. As for the experimental part:
(§2) Cell culture and viability assay. […] Cell lines were maintained in Eagle's Minimum Essential Medium at 37° C. and 5% CO2. […] TCCSUP and HT1376 cells were treated with varying concentrations of ASR488 (0.2-12.5 μM) for 24, 48, and 72 h.
(Formazan colour is commonly taken as a measure of viable cells.)

Series [6] has as its system HT1376 cells. Nature of the series: MTT cell viability assay. In kind it is cell-based. The protocol: as §2
Series [7] concerns TCCSUP cells. Nature of the series: qRT-PCR of top upregulated genes. It counts as cell-based. Particulars: vs vehicle (DMSO). The text has this:
The blue dots represent the genes that are without any significant diversity. […] The sum of the numbers in each large circle are the total number of genes in ASR488-treated or vehicle-treated TCCSUP cells, and the common genes among the samples are represented in the overlapping part.

Series [8] deals with Notch 1 activation in MDA-MB-231 TNBC cells. Description: Western blot of NICD and HES1. In kind it is cell-based. The conditions noted are these: vs vehicle treated controls. Background: A western blot detects proteins with antibodies after separation by electrophoresis.
The test system of another series is MDA-MB-231 TNBC cells. Nature of the series: cell viability assay. In kind it is cell-based. Particulars: 1/20th of IC50 of DOX alone. As for the experimental part:
Synergistic effects of combinations were calculated via isobologram analysis.

For another series, the system named is ubiquitin in ALDH+ cells. Description: ubiquitin expression. It counts as cell-based.

Residues, ends and D or L forms follow the SMILES beside them. *: point of attachment. Cbz = O=C(OCc1ccccc1)*

Sequence of CPEB1 (Q9BZB8 whole entry): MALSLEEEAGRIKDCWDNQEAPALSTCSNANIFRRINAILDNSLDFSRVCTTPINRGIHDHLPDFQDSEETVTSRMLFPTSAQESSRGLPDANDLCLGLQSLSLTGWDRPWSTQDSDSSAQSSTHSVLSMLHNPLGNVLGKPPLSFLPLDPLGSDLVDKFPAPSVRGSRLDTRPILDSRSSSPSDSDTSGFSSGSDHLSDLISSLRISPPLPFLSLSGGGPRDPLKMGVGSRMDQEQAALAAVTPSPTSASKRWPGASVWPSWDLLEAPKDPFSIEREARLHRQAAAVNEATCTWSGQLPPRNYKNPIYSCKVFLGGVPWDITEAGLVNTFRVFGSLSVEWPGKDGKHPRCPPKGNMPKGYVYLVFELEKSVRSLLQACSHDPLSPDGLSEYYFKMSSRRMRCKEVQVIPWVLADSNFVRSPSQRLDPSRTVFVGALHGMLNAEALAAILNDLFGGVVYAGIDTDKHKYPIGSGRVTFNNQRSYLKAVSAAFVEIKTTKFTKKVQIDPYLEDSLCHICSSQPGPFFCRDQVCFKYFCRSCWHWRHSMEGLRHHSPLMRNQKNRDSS
Text for ubiquitin in ALDH+ cells: Commercially available positive and negative controls were used for these experiments.

On to `CC1=C(CO)C(=O)O[C@@H]([C@@H](C)[C@H]2CC[C@H]3[C@@H]4C[C@H]5O[C@]56[C@@H](OC(=O)c5cccs5)C=CC(=O)[C@]6(C)[C@H]4CC[C@]23C)C1` [ASR488], for which the “cell death in CPEB1 knockdown cells” value in series [1] was “did not induced cell death”. For the same molecule, the “change of Tm of bound CPEB1” value on CPEB1 worked out at 9 °C. Also, the “Log2 (fold-change) ACTG2” value in the series with TCCSUP cells [2] (gene ACTG2, treated TCCSUP cells) is recorded as 3.0293. Also, the “Log2 (fold-change) BBOX1” value with TCCSUP cells [2] (gene BBOX1, treated TCCSUP cells) is on record as −2.2384. Moreover, the “Log2 (fold-change) CMPK2” value with TCCSUP cells [2] (gene CMPK2, treated TCCSUP cells) is −1.8470. For the same molecule, the “Log2 (fold-change) CPEB1” value with TCCSUP cells [2] (gene CPEB1, treated TCCSUP cells) was determined as 6.3347. Besides, in the series with TCCSUP cells [2] (gene CYP4F11, treated TCCSUP cells), the “Log2 (fold-change) CYP4F11” value came to 8.3568. Further, the “Log2 (fold-change) DDX60” value with TCCSUP cells [2] (gene DDX60, treated TCCSUP cells) is listed as −2.5069. In addition, in the series on TCCSUP cells [2] (gene FOS, treated TCCSUP cells), the “Log2 (fold-change) FOS” value is given as −1.9465. For the same molecule, in the series on TCCSUP cells [2] (gene GBP4, treated TCCSUP cells), the “Log2 (fold-change) GBP4” value is −2.2704. The “Log2 (fold-change) GNGT2” value in the series on TCCSUP cells [2] (gene GNGT2, treated TCCSUP cells) stood at 2.5802. Moreover, the “Log2 (fold-change) HSPA6” value in the series with TCCSUP cells [2] (gene HSPA6, treated TCCSUP cells) came out at 3.5985. Besides, in the series on TCCSUP cells [2] (gene IFI44L, treated TCCSUP cells), the “Log2 (fold-change) IFI44L” value is reported as −1.9791. In addition, the “Log2 (fold-change) IFIT2” value with TCCSUP cells [2] (gene IFIT2, treated TCCSUP cells) is on record as −1.8473. For the same molecule, the “Log2 (fold-change) IL11” value with TCCSUP cells [2] (gene IL11, treated TCCSUP cells) worked out at 2.9265. In addition, in the series with TCCSUP cells [2] (gene MAP1A, treated TCCSUP cells), the “Log2 (fold-change) MAP1A” value turned out to be 2.1205. Also, the “Log2 (fold-change) OASL” value in the series with TCCSUP cells [2] (gene OASL, treated TCCSUP cells) is given as −1.9737. Moreover, in the series with TCCSUP cells [2] (gene RSAD2, treated TCCSUP cells), the “Log2 (fold-change) RSAD2” value is −2.2235. Moreover, the “Log2 (fold-change) SFN” value with TCCSUP cells [2] (gene SFN, treated TCCSUP cells) turned out to be 3.7239. In addition, the “Log2 (fold-change) SPHK1” value in the series with TCCSUP cells [2] (gene SPHK1, treated TCCSUP cells) came out at 4.6389. Besides, in the series with TCCSUP cells [2] (gene STEAP4, treated TCCSUP cells), the “Log2 (fold-change) STEAP4” value was −1.8141. Besides, in the series on TCCSUP cells [2] (gene TAGLN, treated TCCSUP cells), the “Log2 (fold-change) TAGLN” value is given as 2.3661. In addition, the “toxicity to normal cells” value in the series on normal BCa cells is on record as “non-toxic”. Also, the apoptosis came to 30.5% in the series with TCCSUP cells [3] and 23.2% with HT1376 cells [4]. Further, the IC50 (commonly the concentration needed to halve the response being measured) with TCCSUP cells [5] (24 h) was determined as 800 nM; with TCCSUP cells [5] (48 h), 480 nM; in the series on TCCSUP cells [5] (72 h), 450 nM; in the series on HT1376 cells [6] (HT1376, 24 h), 1280 nM; in the series on HT1376 cells [6] (HT1376, 48 h), 750 nM; in the series with HT1376 cells [6] (HT1376, 72 h), 850 nM. In addition, in the series on TCCSUP cells [7], the “CPEB1 upregulation by qRT-PCR” value was 36 fold. For the same molecule, in the series on TCCSUP cells [7], the “CYP4F11 upregulation by qRT-PCR” value is recorded as 15.8 fold. The “IL11 upregulation by qRT-PCR” value in the series with TCCSUP cells [7] turned out to be 30 fold. Moreover, in the series with TCCSUP cells [7], the “SFN upregulation by qRT-PCR” value stood at 20.12 fold.
With `COc1cccc2c1C(=O)c1c(O)c3c(c(O)c1C2=O)C[C@@](O)(C(=O)CO)C[C@@H]3O[C@H]1C[C@H](N)[C@H](O)[C@H](C)O1` [DOX, Doxorubicin, reference compound], in series [8], the “Notch 1 activation (NICD and HES 1 levels)” value was “induction of Notch 1 activation”. In addition, in the series on MDA-MB-231 TNBC cells, the growth inhibition alone result was “did not inhibit the growth”.
In the case of `CC(C)C[C@@H](C=O)NC(=O)[C@H](CC(C)C)NC(=O)[C@H](CC(C)C)NC(=O)OCc1ccccc1` [MG-132, reference compound] (Cbz-Leu-Leu-Leu-aldehyde), in the series with ubiquitin in ALDH+ cells, the ubiquitin expression entry is on record as “higher level of ubiquitin”.
